Patent publication US8859235B2, “Methods in cell cultures, and related inventions, employing certain additives” (priority 2009, dated 2014)

Key:
[1] = system: E. coli BL21; experiment: Growth and GFPuv expression in E. coli BL21 (DE3), shake flask batch culture in complex medium; assay type: cell-based, Escherichia coli
Description: (§1) The measurement of GFP expression by whole cell fluorescence measurements follows the procedure of Scholz et al. (Eur. J. Biochem., 2000,267, 1565-1570). Frozen cell pellets are thawed, resuspended in 1 mL PBS [NaCl (8 g/L), KCl (0.2), of Na2HPO4 (1.44), KH2PO4 (0.24), adjusted to pH 7.4] and subsequently diluted to an optical density of 0.1. GFP fluorescence of whole cells is measured in a Eclipse Fluorometer (Varian) with an excitation wavelength of 400 nm and an emission wavelength of 512 nm. Specific relative fluorescence [RFU/OD600] is calculated by dividing the relative fluorescence emmision units by the optical density of the suspension at 600 nm.
Precultures are prepared in 250 mL baffled shake flasks containing 25 mL sterile LB medium [Tryptone (10.0 g/L), yeast extract (5.0), NaCl (10.0), kanamycin 30 (mg/L); adjusted to pH 7.0 with NaOH]. Cultures are inoculated with 250 μL of a glycerol stock stored at −80° C. of E. coli BL21 [Novagen, Madison, USA; Genotype: E ompT hsdSB (rB^− mB^−) gal dcm (DE3)] harboring the plasmid pET28a-GFPuv which is obtained by inserting the GFPuv gene (isolated from pBAD-GFPuv through PCR) into the EcoRI site of pET28a (Novagen, Madison, USA) which placed the GFPuv gene under the control of the T7/Lac promotor system. Precultures are incubated at 37° C. for 10-12 h.
Experimental cultures are performed in a volume of 25 mL of the above described medium in 250 mL baffled shake flasks. Stabilizers are added to a final concentration of 5 mM as indicated from sterile stock solutions. Cultures are started by inoculating with the preculture to an OD600 at 600 nm of 0.25. Samples are taken for OD600 measurements. Cultures are induced by adding IPTG (Isopropyl-β-D-thiogalactoside) to a final concentration of 0.5 mM when the OD600 reaches 0.5. Samples of 1 mL are taken after induction for OD600 reading and GFP quantification. For GFP quantification 1 mL of the culture is harvested after 2-4 h and after 20 h after induction. Cells are collected by centrifugation at 16 000 g and the cell pellet is stored at −20° C. for further analysis. Analysis of in vivo GFP fluorescence is performed by the method described in Example 1.

[2] = system: E. coli HM125; experiment: Growth and expression of FimH-CRD in E. coli HM125, shake flask cultivation in mineral medium; assay type: cell-based, Escherichia coli; settings: for mg FimH/g cell: control 0.81; for FimH / Cell pellet: mean of triplicate; for FimH: control 6.48 ± 0.36; for Cell pellet: control 7.99 ± 0.25
Source text: Standard molecular techniques are used for the cloning of the FimH carbohydrate recognition domain (FimH-CRD). The plasmid pfimHs-trc, encoding FimH lectin domain (1-156 amino acids M. Vetsch P et. al. 2002—J. Mol. Biol. 322: 827-840), is kindly provided by R. Glockshuber (ETH Zürich, Switzerland). The FimH-CRD fragment is amplified by polymerase chain reaction using specific forward primer containing the restriction site NdeI and a specific reverse primer containing the thrombin cleavage site and the restriction site XhoI, respectively. The insert is ligated into the corresponding cloning site in pET21b. The resulting contrast is named pET21b-FimH-CRD.
Precultures are prepared in 25 mL sterile LB medium [Tryptone (10.0 g/L), yeast extract (5.0 g/L), NaCl (10.0 g/L), ampicillin 100 (mg/L); adjusted to pH 7.0 with NaOH]. Cultures are inoculated with a glycerol stock stored at −80° C. of the protease deficient strain E. coli HM125 (Meerman H J & Georgiou G. 1994. Biotechnology (NY) 2, 1107-1110) harboring the plasmid pET21b-FimH-CRD Vector. Precultures are incubated at 37° C. for 10-12 h. Experimental cultures are performed in a volume of 500 mL of modified M9 medium [Na2HPO4×7H2O (12.8 g/L), KH2PO4 (3 g/L), NaCl (0.5 g/L), NH4Cl (1 g/L), D-glucose (4 g/L), MgSO4 (0.12 g/L), CaCl2 (0.01 g/L) and vitamins (in mg/L): riboflavin (0.1), choline chloride (1), folic Acid (1), niacinamide (1), p-amino benzoic acid (1), pyridoxal-HCl (1), thiamine-HCl (1), myo-lnositol (2)] supplemented with 100 mg/L ampicillin. Cultures are inoculated with 5 mL of the preoculture and grown at 30° C. and 150 rpm) until the optical density at 600 nm (0D600) reached 0.8-1.0. Then 1 mM IPTG and the stabilizer(s) (obligatory additive) according to the invention are added to final concentrations of 5, 10 and 20 mM as indicated from sterile stock solutions and the cultures are grown overnight. Then the cells are cooled on ice for 5 min and harvested by centrifugation at 5′000 rpm for 20 min at 4° C. Cell are harvested by centrifugation and biomass is quantified by weighing the wet cell pellets. The pellet is suspended in a cold solution of 50 mM Tris-HCl, pH 7.5, 150 mM NaCl, 5 mM EDTA, 1 mg/mL polymyxin B sulfate and stirred for two hours at 4° C. After centrifugation at 11′000 rpm for 20 min at 4° C., the supernatant (periplasmic extract) is dialyzed overnight against 50 mM NaH2PO4, 300 mM NaCl and 10 mM imidazole, pH 8 (binding buffer) and applied to a Ni-NTA column (Sigma, Buchs, Switzerland) attached to a BioLogic fast protein liquid chromatography system (BioRad, Reinach BL, Switzerland). The column is washed with binding buffer and afterwards eluted with 50 mM NaH2PO4, 300 mM NaCl and 250 mM imidazole, pH 8 (elution buffer). Fractions containing FimH-CRD-Th-6H is are pooled and dialyzed against water and then against 20 mM HEPES, 150 mM NaCl and 1 mM CaCl2, pH 7.4.
The concentration of protein is determined by HPLC method (Agilent 1100/1200 series) using BSA as standard (Sigma). The column Poros R1/10 10 μm (100×2 mm, Morvay Analytik) is kept at 60° C.; eluents are A: 0.1% trifluoroacetic acid (TFA) in H2O and B: 90% MeCN+0.09% TFA. A gradient of 20% B to 90% B is run within 20 min at a flow rate of 0.2 mL/min. The detection is monitored at 210 nm. Results are compiled in the following tables 5 and 6.

[3] = system: E. coli JM109; experiment: Growth and GFP expression in high cell density fedbatch cultivation of E. coli JM109 in mineral medium; assay type: cell-based, Escherichia coli; settings: for Optical density Value / GFP expression (RFU/OD600) Value: additive 5 mM; for GFP expression Factor / Optical density Factor: relative to control = 1
Description: as §1
A first preculture of E. coli JM109 harboring the plasmid pBAD-GFPuv is initiated from glycerol stocks stored at −80° C. in 3 mL of LB medium containing 0.01% (v/v) Antifoam A (Fluka). After growth for 10-12 h it is used to seed 2×100 mL of mineral medium (as described in Example 1) containing 0.01% Antifoam A (silicone fluid containing a suspension of finely powdered silica to enhance its defoaming efficiency; Dow Corning Corporation, Midland, Mich., USA), in 1 L baffled shake flasks. After 10-12 h this culture is centrifuged resuspended in 50 mL mineral medium and is used to inoculate the main culture.
Cultivation is performed in BioFlow110 bioreactors (Total volume 2.2 L; New Brunswick Scientific, Nürtingen, Germany) filled with 1 L of mineral medium plus 0.01% (v/v) Antifoam A for the batch phase. Reactors are equipped with pH, pO2 and foam probes, mass flow controllers to control gas flow and ratio of air and pure oxygen and pumps for automated dosage of base (14% [v/v] aqueous NH3), antifoam (25% [v/v] Antifoam A) and nutrient feed solution. The agitation is set to 500 rpm and air is supplied at a gas flow rate of 2 L/min. The fedbatch culture is incoculated to an OD600 of 0.25-0.5 and allowed to grow unlimited with a specific growth rate of ˜0.5 h^−1. Growth is monitored by measuring OD600. When the disolved oxygen concentration decreases to 30%, automated adjustment of the air:oxygen ratio in the gas mix is started to control dO2 to 30% using a PID loop. When the gas mix consisted of 100% oxygen a further increase in oxygen transfer is achieved through increasing the agitation rate up to a maximum level of 1200 rpm. When glycerol in the batch medium is completely consumed, as indicated by a distinct drop of pure oxygen in the gas mix, feeding solutions (first containing 70 g/L glycerol and later as cell density increased 200 g/L glycerol in mineral medium) are pumped into the reactor by a predefined exponential fed scheme. The feeding rate is calculated to allow the cells to grow at a growth rate of approximately 0.15 h^−1. During the feeding phase dO2 is also kept at 30%. 3-6 h after starting the feeding protein expression is induced by the addition of 0.2 (w/v) L-arabinose. Samples are taken every hour for OD600 reading and to obtain cell pellets which are stored at −20° C. for further analysis. Analysis of in vivo GFP fluorescence is performed by the method described in Example 1.

[4] = system: E. coli JM109; experiment: Growth and GFPuv expression in E. coli JM109, shake flask cultivation in mineral medium; assay type: cell-based, Escherichia coli; settings: additive 5 mM, 20 h, mean of two
Description: Precultures are prepared in 250 mL baffled shake flasks containing 25 mL sterile mineral medium [macronutrients in g/L: Glycerol (25), (NH4)2-citrate (1.0), Na2HPO4 2H2O (9.0), KH2PO4 (1.82), NH4Cl (1.52), MgSO4 (0.12), (NH4)2SO4 (0.6); Ampicillin ([…]); micronutrients in mg/L: Na2-EDTA (8.4), thiamine (4.5), Fe(III) citrate (12.5), Na2MoO4 2×H2O (2.5), H3BO3 (3), CoCl2 6×H2O (2.5), CuSO4 5×H2O (0.45) MnCl24×H2O (15), ZnCl2 (8) adjusted to pH 7.0]. Cultures are inoculated with 250 μL of a glycerol stock stored at −80° C. of E. coli JM109 (Promega Inc, Wallisellen, C H; Genotype: endA1, recA1, gyrA96, thi, hsdR17 (rk^−, mk^+), re/A1, supE44, Δ(lac-proAB), [F″ traD36, proAB, laql^qZΔM15]) harboring the plasmid pBAD-GFPuv (Biorad Inc., Reinach, C H; Genbank U62637.1, containing the GFPuv gene under control of the ara promoter; GFP=Green Fluorescent Protein). Precultures are incubated at 37° C. for 10-12 h.
Experimental cultures are performed in a volume of 25 mL of the above described medium in 250 mL baffled shake flasks. Stabilizers according to the invention are added to a final concentration of 5 mM as indicated from sterile stock solutions. Cultures are started by inoculating with the preculture to an optical density at 600 nm (OD600) of 0.25. Growth of the culture is monitored by reading optical density at 600 nm. Cultures are induced by adding L-arabinose to a final concentration of 0.2% (w/v) when the OD600 reaches 0.5. Samples of 1 mL are taken 6 and 20 h after induction for OD600 reading and GFP quantification. For GFP quantification 1 mL of the culture is harvested after 2-4 h and after 20 h after induction. Cells are collected by centrifugation at 16 000 g and the cell pellet is stored at −20° C. for further analysis.
as §1

[5] = system: P. pastoris; settings: 4-10 mM in the medium; Xiao, Appl. Microbiol. Biotechnol. (2006); cited from earlier work
[6] = Experiment 6, process time 24.75 h
[7] = Experiment 7, process time 17 h

Molecule: CC1(C)CC(O)CC(C)(C)N1O [1,4-dihydroxy-2,2,6,6-tetramethylpiperidine]
- Growth (Final OD600) ([1]; Experiment 2, additive 5 mM, 20 h after induction, control 3.3): 3.19 OD600
- GFP expression (Relative fluorescence unit*OD600^−1) ([1]; Experiment 2, additive 5 mM, 20 h after induction, control 195): 222 Relative fluorescence unit*OD600^−1
- Effect on GFPuv expression and growth, in words ([1]; comment on Table 2): shows at least some effect and is not detrimental
- mg FimH/g cell ([2]; additive 5 mM): 1.1 mg FimH/g cell
- FimH ([2]; additive 5 mM): 9.1 ± 0.56 mg/L
- Cell pellet ([2]; additive 5 mM): 8.22 ± 0.35 g/L
- mg FimH/g cell ([2]; additive 10 mM): 1.22 mg FimH/g cell
- FimH ([2]; additive 10 mM): 9.59 ± 0.49 mg/L
- Cell pellet ([2]; additive 10 mM): 7.86 ± 0.25 g/L
- mg FimH/g cell ([2]; additive 20 mM): 1.26 mg FimH/g cell
- FimH ([2]; additive 20 mM): 10.08 ± 0.66 mg/L
- Cell pellet ([2]; additive 20 mM): 7.94 ± 0.33 g/L

Molecule: CC1(C)CC(O)CC(C)(C)N1 [4-Hydroxy-2,2,6,6-tetramethyl-piperidine]
- Optical density Value ([3]; Experiment 6, process time 24.75 h, control 10.3): 24.7
- GFP expression (RFU/OD600) Value ([3]; Experiment 6, process time 24.75 h, control 1038): 5507 RFU/OD600
- GFP expression Factor [3, 6]: 5.3
- Optical density Factor [3, 6]: 2.39
- Optical density Value ([3]; Experiment 7, process time 17 h, control 56.4): 57.1
- GFP expression (RFU/OD600) Value ([3]; Experiment 7, process time 17 h, control 5765): 6438 RFU/OD600
- GFP expression Factor [3, 7]: 1.12
- Optical density Factor [3, 7]: 1.01
- Growth (Final OD600) ([4]; Experiment 2, control 11.0): 10.9 OD600
- GFP expression (Relative fluorescence unit*OD600^−1) ([4]; Experiment 2, control 1423): 1646 Relative fluorescence unit*OD600^−1

Molecule: O=C1O[C@H]([C@@H](O)CO)C(O)=C1O [Ascorbic acid]
- Hirudin yield and quality [5]: increased

Molecule: Tris(tetramethylhydroxypiperidinol) citrate
- Growth (Final OD600) ([4]; Experiment 3, control 10.4): 11.4 OD600
- GFP expression (Relative fluorescence unit*OD600^−1) ([4]; Experiment 3, control 1189): 2675 Relative fluorescence unit*OD600^−1
